PubChem BioAssay (NCI)
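Growth conditions: 96-well plates. Treatment: test compound, 48 hours, 5 concentrations. Analysis: linear interpolation between bracketing concentrations; unreached endpoints set to highest concentration. Abbreviation: GI50, concentration required for 50% inhibition of growth. At the TGI there is no net growth.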

Columns and labels:
Experiment in all cases: NCI anticancer screen, dose series, 48 h
[1] = system: 786-0 renal
[2] = system: A498 renal
[3] = system: A549 NSCLC
[4] = system: ACHN renal
[5] = system: BT-549 breast
[6] = system: CAKI-1 renal
[7] = system: CCRF-CEM leukemia
[8] = system: COLO 205 colon
[9] = system: DU-145 prostate
[10] = system: EKVX NSCLC
[11] = system: HCC-2998 colon
[12] = system: HCT-15 colon
[13] = system: HL-60(TB) leukemia
[14] = system: HOP-62 NSCLC
[15] = system: HOP-92 NSCLC
[16] = system: HS 578T breast
[17] = system: HT29 colon
[18] = system: IGROV1 ovarian
[19] = system: K-562 leukemia
[20] = system: KM12 colon
[21] = system: LOX IMVI melanoma
[22] = system: M14 melanoma
[23] = system: MALME-3M melanoma
[24] = system: MCF7 breast
[25] = system: MDA-MB-231 breast
[26] = system: MDA-MB-435
[27] = system: MOLT-4 leukemia
[28] = system: NCI-H226 lung
[29] = system: NCI-H23 lung
[30] = system: NCI-H460 lung
[31] = system: NCI-H522 lung
[32] = system: NCI/ADR-RES ovarian
[33] = system: OVCAR-3 ovarian
[34] = system: OVCAR-4 ovarian
[35] = system: OVCAR-5 ovarian
[36] = system: OVCAR-8 ovarian
[37] = system: PC-3 prostate
[38] = system: RPMI-8226 leukemia
[39] = system: RXF 393 renal
[40] = system: SF-268 CNS
[41] = system: SF-295 CNS
[42] = system: SF-539 CNS
[43] = system: SK-MEL-2 melanoma
[44] = system: SK-MEL-28 melanoma
[45] = system: SK-MEL-5 melanoma
[46] = system: SK-OV-3 ovarian
[47] = system: SN12C renal
[48] = system: SNB-19 CNS
[49] = system: SNB-75 CNS
[50] = system: SW-620 colon
[51] = system: T-47D breast
[52] = system: TK-10 renal
[53] = system: U251 CNS
[54] = system: UACC-257 melanoma
[55] = system: UACC-62 melanoma
[56] = system: UO-31 renal

`Clc1nc(Cl)c2ncn(Cc3cccc(COc4cccc(OCc5cccc(Cn6cnc7c(Cl)nc(Cl)nc76)c5)c4)c3)c2n1` gave a GI50 [1] of 74.8 µM, a TGI [1] greater than 100 µM and a GI50 [2] greater than 100 µM. For the same compound, the TGI [2] was greater than 100 µM, the GI50 [3] was greater than 100 µM and the TGI [3] was greater than 100 µM. It also gave a GI50 [4] of 54.5 µM, a TGI [4] greater than 100 µM and a GI50 [5] of 14.1 µM. The TGI [5] was greater than 100 µM, the GI50 [6] was greater than 100 µM and the TGI [6] was greater than 100 µM. For the same compound, the GI50 [7] was 5.24 µM, the TGI [7] was greater than 100 µM and the GI50 [8] was greater than 100 µM. For the same compound, the TGI [8] was greater than 100 µM, the GI50 [9] was 14.2 µM and the TGI [9] was 42.8 µM. For the same compound, the GI50 [10] was greater than 100 µM, the TGI [10] was greater than 100 µM and the GI50 [11] was 17.9 µM. For the same compound, the TGI [11] was 33.2 µM, the GI50 [12] was 39 µM and the TGI [12] was greater than 100 µM. It also gave a GI50 [13] of 4.61 µM, a TGI [13] of 31.3 µM and a GI50 [14] of 58.2 µM. It also gave a TGI [14] greater than 100 µM, a GI50 [15] of 15.6 µM and a TGI [15] of 69.2 µM. It also gave a GI50 [16] greater than 100 µM, a TGI [16] greater than 100 µM and a GI50 [17] greater than 100 µM. The TGI [17] was greater than 100 µM, the GI50 [18] was 60.8 µM and the TGI [18] was greater than 100 µM. The GI50 [19] was 71.9 µM, the TGI [19] was greater than 100 µM and the GI50 [20] was 34.6 µM. The TGI [20] was greater than 100 µM, the GI50 [21] was 23.9 µM and the TGI [21] was greater than 100 µM. It also gave a GI50 [22] of 26.1 µM, a TGI [22] greater than 100 µM and a GI50 [23] greater than 100 µM. It also gave a TGI [23] greater than 100 µM, a GI50 [24] of 31.1 µM and a TGI [24] greater than 100 µM. For the same compound, the GI50 [25] was 27.2 µM, the TGI [25] was greater than 100 µM and the GI50 [26] was 13.8 µM. It also gave a TGI [26] greater than 100 µM, a GI50 [27] of 4.73 µM and a TGI [27] greater than 100 µM. For the same compound, the GI50 [28] was 4.97 µM, the TGI [28] was 27.5 µM and the GI50 [29] was 54.5 µM. The TGI [29] was greater than 100 µM, the GI50 [30] was greater than 100 µM and the TGI [30] was greater than 100 µM. It also gave a GI50 [31] of 41.1 µM, a TGI [31] greater than 100 µM and a GI50 [32] of 53.1 µM. The TGI [32] was greater than 100 µM, the GI50 [33] was 7.26 µM and the TGI [33] was 34.7 µM. For the same compound, the GI50 [34] was 32 µM, the TGI [34] was greater than 100 µM and the GI50 [35] was greater than 100 µM. It also gave a TGI [35] greater than 100 µM, a GI50 [36] of 24.7 µM and a TGI [36] greater than 100 µM. It also gave a GI50 [37] of 14.6 µM, a TGI [37] of 47 µM and a GI50 [38] of 2.61 µM. For the same compound, the TGI [38] was 54.8 µM, the GI50 [39] was 7.2 µM and the TGI [39] was greater than 100 µM. It also gave a GI50 [40] greater than 100 µM, a TGI [40] greater than 100 µM and a GI50 [41] greater than 100 µM. For the same compound, the TGI [41] was greater than 100 µM, the GI50 [42] was greater than 100 µM and the TGI [42] was greater than 100 µM. It also gave a GI50 [43] of 17.1 µM, a TGI [43] greater than 100 µM and a GI50 [44] of 90.3 µM. It also gave a TGI [44] greater than 100 µM, a GI50 [45] of 9.76 µM and a TGI [45] of 46.1 µM. For the same compound, the GI50 [46] was greater than 100 µM, the TGI [46] was greater than 100 µM and the GI50 [47] was greater than 100 µM. For the same compound, the TGI [47] was greater than 100 µM, the GI50 [48] was greater than 100 µM and the TGI [48] was greater than 100 µM. The GI50 [49] was greater than 100 µM, the TGI [49] was greater than 100 µM and the GI50 [50] was greater than 100 µM. The TGI [50] was greater than 100 µM, the GI50 [51] was 25.8 µM and the TGI [51] was greater than 100 µM. The GI50 [52] was 37.5 µM, the TGI [52] was greater than 100 µM and the GI50 [53] was 36.9 µM. The TGI [53] was greater than 100 µM, the GI50 [54] was 13.5 µM and the TGI [54] was greater than 100 µM. The GI50 [55] was 60 µM, the TGI [55] was greater than 100 µM and the GI50 [56] was 66.4 µM. It also gave a TGI [56] greater than 100 µM.
